Experimental data as given in publication PMC7689791 (Journal of Clinical Pharmacology, 2020).
Where “and” joins values, the source holds several entries; their conditions need not be identical. Equal entries are not always repeated. Where two headings read alike, the source gives them in different places.

What was measured:
[1] = cited from earlier work
[2] = cited from earlier work; remark: listed apart in the source
[3] = Observed incidence of treatment-emergent adverse events in clinical studies
[4] = Population PK final model; format: in vivo, human
[5] = coadministration with famotidine; cited from earlier work
[6] = Logistic regression exposure-response analysis of TEAE probability; details: for Headache TEAE probability / Influenza TEAE probability / Nasopharyngitis TEAE probability / Somnolence TEAE probability / Upper Respiratory Tract Infection TEAE probability / Urinary Tract Infection TEAE probability: person
[7] = tested on: CYP3A; details: stand-alone DDI studies and PBPK modeling; cited from earlier work
[8] = Model-predicted / simulated lemborexant exposure across covariates; design: species or system human
[9] = study 201, 15-day treatment, cited from earlier work
[10] = oral [14C]lemborexant, healthy subjects, ref study E2006-A001-007, NCT02046213
[11] = studies 202, 303, 304, 5 to 15 mg
[12] = 5 mg, 5th quantile, Cav,ss 6.30 ng/mL
[13] = 5 mg, 25th quantile, Cav,ss 7.90 ng/mL
[14] = 5 mg, 50th quantile, Cav,ss 10.00 ng/mL
[15] = 5 mg, 75th quantile, Cav,ss 14.00 ng/mL
[16] = 5 mg, 95th quantile, Cav,ss 19.00 ng/mL
[17] = 10 mg, 5th quantile, Cav,ss 12.00 ng/mL
[18] = 10 mg, 25th quantile, Cav,ss 17.00 ng/mL
[19] = 10 mg, 50th quantile, Cav,ss 21.00 ng/mL
[20] = 10 mg, 75th quantile, Cav,ss 27.00 ng/mL
[21] = 10 mg, 95th quantile, Cav,ss 37.00 ng/mL

Cc1ncc(OC[C@@]2(c3cccc(F)c3)C[C@H]2C(=O)Nc2ccc(F)cn2)c(C)n1 [Lemborexant]
calculated logP [1]: 3.2 | Fraction of the dose bioavailable [2, 10]: at least 87% | Unchanged lemborexant in feces [2, 10]: 13.0% | Unchanged lemborexant in urine [2, 10]: not detected | Administered dose recovered as unchanged drug in urine ([2]; single ascending-dose study, ref study 001, NCT01463098): < 1% | Somnolence rate, treatment ([3]; 9-month SUNRISE 2 study): 11% | Nasopharyngitis frequency, active treatment [3, 11]: 8.6% | Upper respiratory tract infection frequency, active treatment [3, 11]: 3.2% | Urinary tract infection frequency, active treatment [3, 11]: 2.5% | Somnolence rate, treatment ([3]; study 202): 6% | Cav,ss ([4]; 5 mg, 5th quantile of Cav,ss): 6.30 ng/mL | Cav,ss ([4]; 5 mg, 25th quantile of Cav,ss): 7.90 ng/mL | Cav,ss ([4]; 5 mg, 50th quantile of Cav,ss): 10.00 ng/mL | Cav,ss ([4]; 5 mg, 75th quantile of Cav,ss): 14.00 ng/mL | Cav,ss ([4]; 5 mg, 95th quantile of Cav,ss): 19.00 ng/mL | Cav,ss ([4]; 10 mg, 5th quantile of Cav,ss): 12.00 ng/mL | Cav,ss ([4]; 10 mg, 25th quantile of Cav,ss): 17.00 ng/mL | Cav,ss ([4]; 10 mg, 50th quantile of Cav,ss): 21.00 ng/mL | Cav,ss ([4]; 10 mg, 75th quantile of Cav,ss): 27.00 ng/mL | Cav,ss ([4]; 10 mg, 95th quantile of Cav,ss): 37.00 ng/mL | Accumulation ratio ([4]; bedtime once-daily dosing): 1.9 | Effect size of age covariate on CL/F ([4]; elderly (>65 years old) versus adults, univariate forward addition): 126% | Oral clearance lower in the elderly ([4]; elderly (≥65 years)): 26% | CL/F, elderly (categorical covariate factor) ([4]; final model estimate): 0.739 | Interindividual variability CL/F ([4]; final model estimate): 48.1 %CV | Interindividual variability Q3/F ([4]; final model estimate): 56.8 %CV | Interindividual variability Q4/F ([4]; final model estimate): 46.5 %CV | Interindividual variability V2/F ([4]; final model estimate): 142 %CV | Interindividual variability V3/F ([4]; final model estimate): 82.0 %CV | Interindividual variability V4/F ([4]; final model estimate): 41.4 %CV | Q3/F ([4]; final model estimate): 32.1 L/h | Q4/F ([4]; final model estimate): 31.0 L/h | Residual variability, additive (TAD >3 h) ([4]; final model estimate): 0.0189 ng/mL | Residual variability, additive (TAD ≤3 h) ([4]; final model estimate): 2.62 ng/mL | Residual variability, proportional (TAD > 3 h) ([4]; final model estimate): 14.3 % CV | Residual variability, proportional (TAD ≤ 3 h) ([4]; final model estimate): 32.9 % CV | V2/F ([4]; final model estimate): 9.09 L | V3/F ([4]; final model estimate): 278 L | V4/F ([4]; final model estimate): 783 L | CL/F ([4]; final model estimate, typical subject): 23 L/h and 22.7 L/h | CL/F ([4]; final model, bootstrap median): 23.7 L/h | CL/F, elderly (categorical covariate factor) ([4]; final model, bootstrap median): 0.713 | Interindividual variability CL/F ([4]; final model, bootstrap median): 46.8 %CV | Interindividual variability Q3/F ([4]; final model, bootstrap median): 42.6 %CV | Interindividual variability Q4/F ([4]; final model, bootstrap median): 52.0 %CV | Interindividual variability V2/F ([4]; final model, bootstrap median): 131 %CV | Interindividual variability V3/F ([4]; final model, bootstrap median): 66.1 %CV | Interindividual variability V4/F ([4]; final model, bootstrap median): 38.3 %CV | Q3/F ([4]; final model, bootstrap median): 33.0 L/h | Q4/F ([4]; final model, bootstrap median): 30.1 L/h | Residual variability, additive (TAD >3 h) ([4]; final model, bootstrap median): 0.0203 ng/mL | Residual variability, additive (TAD ≤3 h) ([4]; final model, bootstrap median): 2.46 ng/mL | Residual variability, proportional (TAD > 3 h) ([4]; final model, bootstrap median): 14.3 % CV | Residual variability, proportional (TAD ≤ 3 h) ([4]; final model, bootstrap median): 33.2 % CV | V2/F ([4]; final model, bootstrap median): 11.4 L | V3/F ([4]; final model, bootstrap median): 289 L | V4/F ([4]; final model, bootstrap median): 779 L | ALAG1 ([4]; final model, fixed): 0.403 h | D1, capsule ([4]; final model, fixed): 0.467 h | D1, nighttime dosing (covariate factor) ([4]; final model, fixed): 2.33 | D1, tablet (covariate factor) ([4]; final model, fixed): 0.254 | F1, food (covariate factor) ([4]; final model, fixed): 1.21 | Interindividual variability D1 ([4]; final model, fixed): 167 %CV | Interindividual variability F1 ([4]; final model, fixed): 68.1 %CV | Interindividual variability Ka ([4]; final model, fixed): 43.8 %CV | Ka, capsule ([4]; final model, fixed): 0.532 h⁻¹ | Ka, food (covariate factor) ([4]; final model, fixed): 0.695 | Ka, tablet (covariate factor) ([4]; final model, fixed): 1.12 | Contribution of beta half-life to total dispositional AUC ([4]; from microrate constants): 0.2% | Contribution of gamma half-life to total dispositional AUC ([4]; from microrate constants): 0.4% | Fraction of alpha disposition phase of total disposition AUC ([4]; from microrate constants): 99.4% | Decrease in lemborexant Cmax [5]: 27% | Delay in the median tmax [5]: 30 min | Effect on lemborexant AUC0-t and AUC0-inf [5]: no significant effect | Headache TEAE probability [6, 12]: 11.0 (7.8‐14.0) | Influenza TEAE probability [6, 12]: 3.8 (2.3‐6.2) | Nasopharyngitis TEAE probability [6, 12]: 10.0 (7.5‐14.0) | Somnolence TEAE probability [6, 12]: 7.2 (5.3‐9.7) | Upper Respiratory Tract Infection TEAE probability [6, 12]: 4.7 (2.9‐7.3) | Urinary Tract Infection TEAE probability [6, 12]: 2.0 (1.2‐3.5) | Headache TEAE probability [6, 13]: 9.8 (7.6‐13.0) | Influenza TEAE probability [6, 13]: 3.6 (2.3‐5.5) | Nasopharyngitis TEAE probability [6, 13]: 9.5 (7.3‐12.0) | Somnolence TEAE probability [6, 13]: 7.4 (5.7‐9.7) | Upper Respiratory Tract Infection TEAE probability [6, 13]: 4.4 (2.9‐6.4) | Urinary Tract Infection TEAE probability [6, 13]: 2.1 (1.3‐3.5) | Headache TEAE probability [6, 14]: 9.2 (7.3‐11.0) | Influenza TEAE probability [6, 14]: 3.4 (2.3‐4.9) | Nasopharyngitis TEAE probability [6, 14]: 8.9 (7.1‐11.0) | Somnolence TEAE probability [6, 14]: 7.7 (6.1‐9.7) | Upper Respiratory Tract Infection TEAE probability [6, 14]: 4.1 (2.9‐5.7) | Urinary Tract Infection TEAE probability [6, 14]: 2.3 (1.4‐3.5) | Headache TEAE probability [6, 15]: 8.3 (6.8‐10.0) | Influenza TEAE probability [6, 15]: 3.1 (2.2‐4.3) | Nasopharyngitis TEAE probability [6, 15]: 8.1 (6.6‐9.8) | Somnolence TEAE probability [6, 15]: 8.1 (6.6‐9.9) | Upper Respiratory Tract Infection TEAE probability [6, 15]: 3.6 (2.7‐4.9) | Urinary Tract Infection TEAE probability [6, 15]: 2.5 (1.7‐3.6) | Headache TEAE probability [6, 16]: 6.8 (5.3‐8.6) | Influenza TEAE probability [6, 16]: 2.6 (1.8‐3.9) | Nasopharyngitis TEAE probability [6, 16]: 6.7 (5.2‐8.6) | Somnolence TEAE probability [6, 16]: 8.9 (7.3‐11.0) | Upper Respiratory Tract Infection TEAE probability [6, 16]: 3.0 (2.0‐4.3) | Urinary Tract Infection TEAE probability [6, 16]: 2.9 (2.0‐4.1) | Headache TEAE probability [6, 17]: 9.2 (7.4‐12.0) | Influenza TEAE probability [6, 17]: 3.4 (2.3‐4.9) | Nasopharyngitis TEAE probability [6, 17]: 8.9 (7.1‐11.0) | Somnolence TEAE probability [6, 17]: 7.7 (6.0‐9.7) | Upper Respiratory Tract Infection TEAE probability [6, 17]: 4.1 (2.9‐5.7) | Urinary Tract Infection TEAE probability [6, 17]: 2.2 (1.4‐3.5) | Headache TEAE probability [6, 18]: 7.7 (6.3‐9.4) | Influenza TEAE probability [6, 18]: 2.9 (2.1‐4.1) | Nasopharyngitis TEAE probability [6, 18]: 7.6 (6.2‐9.3) | Somnolence TEAE probability [6, 18]: 8.4 (6.9‐10.0) | Upper Respiratory Tract Infection TEAE probability [6, 18]: 3.4 (2.5‐4.6) | Urinary Tract Infection TEAE probability [6, 18]: 2.6 (1.8‐3.7) | Headache TEAE probability [6, 19]: 6.8 (5.3‐8.6) | Influenza TEAE probability [6, 19]: 2.6 (1.8‐3.9) | Nasopharyngitis TEAE probability [6, 19]: 6.7 (5.2‐8.6) | Somnolence TEAE probability [6, 19]: 8.9 (7.3‐11.0) | Upper Respiratory Tract Infection TEAE probability [6, 19]: 3.0 (2.0‐4.3) | Urinary Tract Infection TEAE probability [6, 19]: 2.9 (2.0‐4.0) | Headache TEAE probability [6, 20]: 5.7 (4.0‐8.1) | Influenza TEAE probability [6, 20]: 2.3 (1.3‐4.0) | Nasopharyngitis TEAE probability [6, 20]: 5.8 (4.0‐8.1) | Somnolence TEAE probability [6, 20]: 9.6 (7.6‐12.0) | Upper Respiratory Tract Infection TEAE probability [6, 20]: 2.5 (1.5‐4.3) | Urinary Tract Infection TEAE probability [6, 20]: 3.3 (2.2‐4.9) | Headache TEAE probability [6, 21]: 3.9 (2.0‐7.4) | Influenza TEAE probability [6, 21]: 1.7 (0.6‐4.7) | Nasopharyngitis TEAE probability [6, 21]: 4.0 (2.1‐7.7) | Somnolence TEAE probability [6, 21]: 11.0 (7.5‐17.0) | Upper Respiratory Tract Infection TEAE probability [6, 21]: 1.7 (0.6‐4.6) | Urinary Tract Infection TEAE probability [6, 21]: 4.4 (2.2‐8.7) | Cav,ss as linear predictor of the probability of specific TEAEs (somnolence, nasopharyngitis, flu/influenza, urinary tract infection, upper respiratory tract infection, headache) ([6]; with and without adjustment for age): not a clinically meaningful linear predictor | Interaction with moderate and strong CYP3A inhibitors [7]: clinically meaningful interaction | Higher exposure for high ALP ([8]; ALP 150 U/L, relative to population average): 9% | Lower exposure for underweight ([8]; BMI 15 kg/m^2, relative to typical subject with normal BMI): 25% | Higher exposure for class 1 obesity ([8]; BMI 32 kg/m^2, relative to typical subject with normal BMI): 11% | Exposure elevation in high ALP subjects ([8]; high ALP): 8% | Exposure elevation in obese subjects ([8]; high BMI): up to 20% | Higher CL/F for ALP at the upper range of normal over the typical subject ([8]; model prediction): 7% | Higher exposure in the elderly ([8]; model prediction, relative to population average / adult insomnia population): 26% | Somnolence frequency ([9]; 1-mg group): 3.1% | Somnolence frequency ([9]; 25-mg group): 22.0%
